# Results: patent US8653062B2, “Compounds as receptor modulators with therapeutic utility” (Allergan, Inc., priority 2009, dated 2014)
# Tested on: female C57BL6 mice
# Assay: Lymphopenia assay in mice
# Assay type: in vivo
# Details: after 5 hours, 10 mg/Kg subcutaneously, FIG. 1
# Procedure: Test drugs are prepared in a solution containing 3% (w/v) 2-hydroxy propyl β-cyclodextrin (HPBCD) and 1% DMSO to a final concentration of 1 mg/ml, and subcutaneously injected to female C57BL6 mice (CHARLES RIVERS) weighing 20-25 g at the dose of 10 mg/Kg. Blood samples are obtained by puncturing the submandibular skin with a Goldenrod animal lancet at 5, 24, 48, 72, and 96 hrs post drug application. Blood is collected into microvettes (SARSTEDT) containing EDTA tripotassium salt. Lymphocytes in blood samples are counted using a HEMAVET Multispecies Hematology System, HEMAVET HV950FS (Drew Scientific Inc.). (Hale, J. et al Bioorg. & Med. Chem. Lett. 14 (2004) 3351).
# A lymphopenia assay in mice; as previously described, was employed to measure the in vivo blood lymphocyte depletion after dosing with 1-{4-[(5-phenylpentyl)oxy]-3-(2-thienyl)benzyl}azetidine-3-carboxylic acid. This S1P1 agonist is useful for S1P-related diseases and exemplified by the lymphopenia in vivo response. […] Lymphocytes in blood samples were counted using a HEMAVET Multispecies Hematology System, HEMAVET HV950FS (Drew Scientific Inc.). […]
row,Compound,lymphocyte count (number of lymphocytes 10^3/μL blood)
1,"O=C(O)C1CN(Cc2ccc(OCCCCCc3ccccc3)c(-c3cccs3)c2)C1 [Compound 16, 1-{4-[(5-phenylpentyl)oxy]-3-(2-thienyl)benzyl}azetidine-3-carboxylic acid]",< 1 10^3/μL blood

# Target: T1, human S1P1 receptor (Homo sapiens, UniProt P21453)
# T1 construct: expressed in transfected cells; membranes used
# Assay: GTP γ35S binding assay for S1P1 activity
# Assay type: biochemical
# Details: membranes of cells stably expressing S1P1 receptor, 30 min at 25° C.
# Procedure: Compounds were synthesized and tested for S1P1 activity using the GTP γ^35S binding assay. These compounds may be assessed for their ability to activate or block activation of the human S1P1 receptor in cells stably expressing the S1P1 receptor.
# GTP γ^35S binding was measured in the medium containing (mM) HEPES 25, pH 7.4, MgCl2 10, NaCl 100, dithitothreitol 0.5, digitonin 0.003%, 0.2 nM GTP γ^35S, and 5 μg membrane protein in a volume of 150 μl. Test compounds were included in the concentration range from 0.08 to 5,000 nM unless indicated otherwise. Membranes were incubated with 100 μM 5′-adenylylimmidodiphosphate for 30 min, and subsequently with 10 μM GDP for 10 min on ice. Drug solutions and membrane were mixed, and then reactions were initiated by adding GTP γ^35S and continued for 30 min at 25° C. Reaction mixtures were filtered over Whatman GF/B filters under vacuum, and washed three times with 3 mL of ice-cold buffer (HEPES 25, pH7.4, MgCl2 10 and NaCl 100). Filters were dried and mixed with scintillant, and counted for ^35S activity using a β-counter. Agonist-induced GTP γ^35S binding was obtained by subtracting that in the absence of agonist. Binding data were analyzed using a non-linear regression method. In case of antagonist assay, the reaction mixture contained 10 nM S1P in the presence of test antagonist at concentrations ranging from 0.08 to 5000 nM.
# T1 sequence (P21453 whole entry): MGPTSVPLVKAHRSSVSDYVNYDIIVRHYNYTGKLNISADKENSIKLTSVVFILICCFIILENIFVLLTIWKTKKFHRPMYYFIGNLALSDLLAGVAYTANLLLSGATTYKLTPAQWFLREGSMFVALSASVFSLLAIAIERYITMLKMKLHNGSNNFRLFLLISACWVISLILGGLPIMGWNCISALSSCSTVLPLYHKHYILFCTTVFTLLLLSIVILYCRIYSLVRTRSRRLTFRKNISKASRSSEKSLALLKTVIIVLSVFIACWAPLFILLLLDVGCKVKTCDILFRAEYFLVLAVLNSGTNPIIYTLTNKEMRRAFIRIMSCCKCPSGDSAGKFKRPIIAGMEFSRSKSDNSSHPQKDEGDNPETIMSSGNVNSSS
row,Compound,EC50
1,"O=C(O)C1CN(Cc2ccc(OCCCCCc3ccccc3)c(C3=CCCC3)c2)C1 [Compound 15, 1-{3-cyclopent-1-en-1-yl-4-[(5-phenylpentyl)oxy]benzyl}azetidine-3-carboxylic acid]",13 nM
2,"O=C(O)C1CN(Cc2ccc(OCCCCCc3ccccc3)c(-c3cccs3)c2)C1 [Compound 16, 1-{4-[(5-phenylpentyl)oxy]-3-(2-thienyl)benzyl}azetidine-3-carboxylic acid]",15 nM
3,"O=C(O)C1CN(Cc2ccc(OCCCCCc3ccccc3)c(-n3cccn3)c2)C1 [Compound 25, 1-{4-[(5-phenylpentyl)oxy]-3-(1H-pyrazol-1-yl)benzyl}azetidine-3-carboxylic acid]",22 nM
4,"O=C(O)C1CN(Cc2ccc(SCCCCCc3ccccc3)c(-c3cccs3)c2)C1 [Compound 26, 1-{4-[(5-phenylpentyl)thio]-3-(2-thienyl)benzyl}azetidine-3-carboxylic acid]",182 nM
5,"O=C(O)C1CC(NCc2ccc(OCCCCCc3ccccc3)c(-c3cccs3)c2)C1 (stereo not drawn) [Compound 28, 3-({4-[(5-phenylpentyl)oxy]-3-(2-thienyl)benzyl}amino)cyclobutanecarboxylic acid]",15 nM
